Results as given in PMC10790361, “Membrane Partitioning of TEMPO Discriminates Human Lung Cancer from Neighboring Normal Cells” (Acta Naturae, 2023).

Columns and labels:
[1] = test system: membranes of human lung normal (healthy) cells; assay: EPR study of TEMPO partitioning into membranes of healthy (normal) human lung cells; format: physicochemical; settings: for DGK (free energy change to transfer TEMPO from aqueous to lipid phase of the membrane) / DGt (∆Gτ, activation energy of rotational motions of TEMPO in the membrane) / 2Aiso aqueous / 2Aiso membrane: healthy cells; for DGK (free energy change to transfer TEMPO from aqueous to lipid phase of the membrane) / DGt (∆Gτ, activation energy of rotational motions of TEMPO in the membrane): 283–317 K; for 2Aiso aqueous: TEMPO in aqueous phase; for 2Aiso membrane: TEMPO in membrane
Description: (§1) The fresh lung tissue (about 2-3 h after the surgery) was washed thoroughly with PBS buffer to remove blood. Afterward, the tissue was cut into small pieces and then homogenized in PBS buffer using a glass homogenizer. The homogenized lung tissue was washed three times with PBS solution and then centrifuged (Eppendorf 5418) to remove the cell debris. Obtained cell suspension was used for the experiments. The intactness of the cells was assessed by Zeta-potential measurements as shown previously.
(§2) EPR measurements were performed using a Bruker ELEXSYS E580 spectrometer at X-band frequency with variable temperature accessory. The aqueous suspension of lung carcinoma and neighboring normal cells with TEMPO were placed into Pyrex capillary tubes with an I.D. of 0.6 mm. EPR spectra were recorded with the following instrument parameters: scan width: 100 Gauss; sweep time: 40 s; modulation amplitude: 1 Gauss; modulation frequency: 100 kHz; microwave power: 0.47 mW; and time constant: 0.1 s. Before the measurements, the samples were kept for 5 minutes at each temperature to ensure that the sample temperature matched the set temperatures.
(§3) The difference in the nitrogen splitting constant of TEMPO in hydrophobic (cell membrane) and hydrophilic (aqueous) environments is the reason for the split of the third component. Consequently, the EPR spectra of TEMPO incubated with cells in an aqueous environment reflect the partitioning of TEMPO in the lipid fraction of the cell membrane and aqueous environments. To resolve the spectral components, the EPR spectra of TEMPO were analyzed using the LabVIEW program developed by Christian Altenbach (https://sites.google.com/site/altenbach/), using the spectral simulation code written in FORTRAN [34]. Along with computer simulations, rotational correlation times of TEMPO were also calculated using the following formula that uses the peak heights and line widths of the first derivative EPR spectra:
(§4) where W0 is the width (in Gauss) of the central component, while h0 and h-1 are the heights of the central and high-magnetic field components of the first derivative EPR spectrum. As mentioned above, the EPR spectra resulting from the partitioning of TEMPO in the system are composite and consist of two components. Therefore, the formula above was applied after the decomposition of the EPR spectra into lipophilic and hydrophilic components. Because of the close similarity of the correlation times obtained from the software and the formula, data are shown only as deduced from the software.
(§5) Double integrals of the EPR spectral components (Imbrand Iaqrepresent TEMPO confined in the membrane and aqueous environments, respectively) were employed to calculate partition coefficients with the following formula: K = Imbr/(Imbr+ Iaq). To characterize the EPR spectral components, the membrane and aqueous environments were described as lipophylic and hydrophilic, respectively. Apparently, a partition coefficient depends on both the concentration of the lipid fractions and the number of lung cells in the aqueous system. For an accurate comparison of the data related to the partition coefficients, the same amount (by weight) of cancer and normal cell suspensions were used. Both cancer and normal cell suspensions were incubated with TEMPO (150 mM total concentration) for about 30 min. The experimental conditions used in this study allow us to compare the partition coefficients of the normal and cancer cells directly.
(§6) The temperature dependence of the equilibrium constant K (partition coefficient in our case) was used to calculate the free energy changes required to transfer TEMPO molecules from the aqueous to the lipid phase of the membranes of the healthy and cancer cells.
(§7) Similarly, the temperature dependence of the rotational correlation times of TEMPO was used to determine the activation energies for rotational motions in the membranes of the healthy and cancer cells.

[2] = test system: membranes of human lung carcinoma (cancer) cells; assay: EPR study of TEMPO partitioning into membranes of human lung carcinoma cells; format: physicochemical; settings: for 2Aiso aqueous: TEMPO in aqueous phase
Description: as §1, §2, §3, §4, §5, §6, §7

[3] = from cited IC50 values
[4] = design: method as in PMID 38234602; settings: cited from earlier work
[5] = read-out: IC50 (cytotoxicity); cited from earlier work
[6] = test system: various cell lines related to breast, colon, liver, and ovary cancer; design: method as in PMID 9607601; settings: range over cell lines related to breast, read-out: IC50 as an antiproliferative agent; cited from earlier work
HCT116 cell lines = test system: HCT116 cell lines; design: method as in PMID 9607601; settings: cited from earlier work
[7] = cancer cells, pH 6.2, 283–317 K
[8] = cancer cells, pH 7.3, 283–317 K

SMILES: CC1(C)CCCC(C)(C)N1[O] [TEMPO, 2,2,6,6-tetramethylpiperidine-1-oxyl]
- increase of free energy change of TEMPO transfer ([1]; healthy cell membranes, acidic transition from pH 7.3 to pH 6.2): about 19%
- rotational correlation time of TEMPO in membrane ([1]; healthy cell membranes, room temperature, pH 7.3): ~617 ps
- DGK (free energy change to transfer TEMPO from aqueous to lipid phase of the membrane) ([1]; pH 6.2): 3.7 ± 0.3 kcal/mol
- DGt (∆Gτ, activation energy of rotational motions of TEMPO in the membrane) ([1]; pH 6.2): 3.8 ± 0.3 kcal/mol
- 2Aiso aqueous ([1]; pH 6.2): 34.4 Gauss
- 2Aiso membrane ([1]; pH 6.2): 31.9 Gauss
- DGK (free energy change to transfer TEMPO from aqueous to lipid phase of the membrane) ([1]; pH 7.3): 3.1 ± 0.1 kcal/mol
- DGt (∆Gτ, activation energy of rotational motions of TEMPO in the membrane) ([1]; pH 7.3): 1.9 ± 0.2 kcal/mol
- 2Aiso aqueous ([1]; pH 7.3): 34.5 Gauss
- 2Aiso membrane ([1]; pH 7.3): 32.4 Gauss
- 2Aiso values of TEMPO incorporated into the membranes of the cells (interval) ([1]; membranes of healthy and cancer cells, pH 6.2 and 7.3): 31.4−32.4 Gauss
- increase of free energy change of TEMPO transfer ([2]; cancer cell membranes, acidic transition from pH 7.3 to pH 6.2): ~42%
- rotational correlation time of TEMPO in membrane ([2]; cancer cell membranes, room temperature, pH 7.3): about 490 ps
- less energy required for TEMPO partitioning ([2]; cancer cells at pH 7.3, free energy values compared for pH 6.2 and 7.3): 30%
- DGK (free energy change to transfer TEMPO from aqueous to lipid phase of the membrane) [2, 7]: 1.7 ± 0.1 kcal/mol
- DGt (∆Gτ, activation energy of rotational motions of TEMPO in the membrane) [2, 7]: 2.6 ± 0.3 kcal/mol
- 2Aiso aqueous ([2]; cancer cells, pH 6.2): 34.5 Gauss
- DGK (free energy change to transfer TEMPO from aqueous to lipid phase of the membrane) [2, 8]: 1.2 ± 0.1 kcal/mol
- DGt (∆Gτ, activation energy of rotational motions of TEMPO in the membrane) [2, 8]: 2.1 ± 0.2 kcal/mol
- 2Aiso aqueous ([2]; cancer cells, pH 7.3): 34.5 Gauss
- 2Aiso membrane ([2]; cancer cells, pH 7.3, TEMPO in membrane): 31.5 Gauss
- TEMPO partition coefficient, cancer cells compared with healthy cells ([2]; cancer vs neighboring normal cells, 283–317 K, pH 7.3 and 6.2): significantly higher
- IC50 of TEMPO relative to TEMPOL (fold lower) [3]: about 4 fold
- partitioning into liposomes of cancer cell lipids compared to liposomes of normal cell lipids [4]: significantly enhanced partitioning
- IC50 [5]: 2700 µM

SMILES: CC1(C)CC(OC(=O)c2ccccc2)CC(C)(C)N1[O] [TEMPO-benzoate]
- partitioning in liposome studies [4]: significantly enhanced partitioning

SMILES: CC1(C)CC(O)CC(C)(C)N1[O] [TEMPOL, 4-hydroxy-TEMPO]
- IC50 [6]: 210 to 1070 µM
- IC50 [5]: 11400 µM

SMILES: COc1cccc2c1C(=O)c1c(O)c3c(c(O)c1C2=O)C[C@@](O)(C(=O)CO)C[C@@H]3O[C@H]1C[C@H](N)[C@H](O)[C@H](C)O1 [doxorubicin]
- fold decrease of doxorubicin IC50 by TEMPOL pretreatment (HCT116 cell lines): ~7 fold
